Experiment [1] addresses T1, recombinant human cIAP2-BIR3 protein (Homo sapiens, UniProt Q13489).
T1 construct: recombinant human cIAP2-BIR3 protein; purchased Reaction biology APT-11-372
As to the kind of experiment: Recombinant human c-IAP2-BIR3 biochemical assay (HTRF, peptide displacement). The following applies: 3.7 nM cIAP2-BIR3, 3.7 nM AbuRPF-K(5-Fam)-NH2 peptide, read-out: Protein binding IC50 (nM) c-IAP2. As to the method:
II. Recombinant Human c-IAP2-BIR3 Biochemical Assay
(§1) Compounds disclosed herein were tested for blocking of recombinant human cIAP2-BIR3 protein (Cat: APT-11-372, Reaction biology) with its peptide in an assay based on Homogeneous Time Resolved Fluorescence. 3.7 nM recombinant human cIAP2-BIR3 protein was pre-incubated with a serial dilution of compounds disclosed herein (maximum concentration is 10 uM, 4-fold serially diluted, 10 points) at room temperature for 1 hour in an assay buffer containing 20 mM HEPES, pH 7.5, 50 mM NaCl, 0.005% Tween-20, 1 mM DTT. Then 3.7 nM AbuRPF-K(5-Fam)-NH2 (Cat: 709702, GL Biochem) was added to plate incubated at room temperature for 1 hour. Mab Anti-6His Tb cryptate Gold (Cat: 61HI2TLB, Cisbio Bioassays) was added to plate and further incubated at room temperature for 1 hour. The HTRF signals (ex337 nm, em520 nm/490 nm) were read on BMG PHERAstar FS instrument. The inhibition percentage of cIAP2-BIR3 interaction with its peptide in presence of increasing concentrations of compounds was calculated based on the ratio of fluorescence at 520 nm to that at 490 nm. The IC50 for each compound was derived from fitting the data to the four-parameter logistic equation by Dotmatics and summarized in table 1.
(In general: TR-FRET usually uses a lanthanide donor and a delayed reading to cut background.)

In experiment [2] the target is T2, recombinant human XIAP-BIR3 protein (Homo sapiens, UniProt P98170).
T2 construct: recombinant human XIAP-BIR3 protein; purchased Reaction biology APT-11-374
As to the kind of experiment: Recombinant human XIAP-BIR3 biochemical assay (HTRF, peptide displacement). The following applies: 3.7 nM XIAP-BIR3, 7.6 nM AbuRPF-K(5-Fam)-NH2 peptide, read-out: Protein binding IC50 (nM) XIAP. As to the method: III. Recombinant Human XIAP-BIR3 Biochemical Assay
as §1, with “human XIAP-BIR3” for “human cIAP2-BIR3”, “(Cat: APT-11-374,” for “(Cat: APT-11-372,”, “Then 7.6” for “Then 3.7”, “of XIAP-BIR3” for “of cIAP2-BIR3”

The target in experiment [3] is T3, recombinant human cIAP1-BIR3 protein (Homo sapiens, UniProt Q13490).
T3 construct: recombinant human cIAP1-BIR3 protein; purchased Reaction biology APT-11-370
As to the kind of experiment: Recombinant human c-IAP1-BIR3 biochemical assay (HTRF, peptide displacement). To be noted: 1.2 nM cIAP1-BIR3, 3 nM AbuRPF-K(5-Fam)-NH2 peptide, read-out: Protein binding IC50 (nM) c-IAP1. As to the method:
I. Recombinant human c-IAP1-BIR3 biochemical assay
as §1, with “human cIAP1-BIR3” for “human cIAP2-BIR3”, “(Cat: APT-11-370,” for “(Cat: APT-11-372,”, “Fluorescence. 1.2” for “Fluorescence. 3.7”, “Then 3” for “Then 3.7”, “nM AbuRPF-K (5-Fam)-NH2” for “nM AbuRPF-K(5-Fam)-NH2”, “of cIAP1-BIR3” for “of cIAP2-BIR3”

The structures appear in SMILES notation. Counter-ions that a name gives are not always drawn. A value given as a limit tells only on which side of the number the result lay.

T3 sequence (Q13490 253-363 limits assumed): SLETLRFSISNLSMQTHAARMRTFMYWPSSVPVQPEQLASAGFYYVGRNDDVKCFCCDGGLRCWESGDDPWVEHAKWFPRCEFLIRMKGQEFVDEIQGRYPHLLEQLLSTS
T1 sequence (Q13489 238-349 limits assumed): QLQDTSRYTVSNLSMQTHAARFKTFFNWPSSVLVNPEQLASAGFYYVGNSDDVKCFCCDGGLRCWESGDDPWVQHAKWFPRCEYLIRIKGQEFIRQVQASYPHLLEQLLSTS
T2 sequence (P98170 241-356 limits assumed): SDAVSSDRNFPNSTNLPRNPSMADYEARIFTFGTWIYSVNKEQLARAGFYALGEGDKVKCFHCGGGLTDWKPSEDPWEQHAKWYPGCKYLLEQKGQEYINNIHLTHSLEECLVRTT

For `CCOc1nc2c(cc1Cc1ccc(F)cc1)N(C(=O)CN1C[C@@H](C)NC[C@@H]1CN1CCOC[C@H]1C)CCO2` [Compound 17, 1-(6-ethoxy-7-(4-fluorobenzyl)-2,3-dihydro-1H-pyrido[2,3-b][1,4]oxazin-1-yl)-2-((2R,5R)-5-methyl-2-(((R)-3-methylmorpholino)methyl)piperazin-1-yl)ethan-1-one], the results for the half-inhibitory concentration (IC50) in experiment [1], in experiment [2] and in experiment [3] were 1.3 nM, 5.4 nM and 0.53 nM, respectively.
On the same counts, the results for `C[C@@H]1CN(CC(=O)N2CCCOc3ncc(Cc4ccc(F)cc4)cc32)[C@@H](CN2CCOC[C@H]2C)CN1` [Compound 18, 1-(8-(4-fluorobenzyl)-3,4-dihydropyrido[2,3-b][1,4]oxazepin-1(2H)-yl)-2-((2R,5R)-5-methyl-2-(((R)-3-methylmorpholino)methyl)piperazin-1-yl)ethan-1-one] are more than 1000 nM, more than 1000 nM and more than 1000 nM.
For `CC1COc2ncc(Cc3ccc(F)cc3)cc2N1C(=O)CN1C[C@@H](C)NC[C@@H]1CN1CCOC[C@H]1C` (stereo partly drawn) [Compound 19, 1-(7-(4-fluorobenzyl)-2-methyl-2,3-dihydro-1H-pyrido[2,3-b][1,4]oxazin-1-yl)-2-((2R,5R)-5-methyl-2-(((R)-3-methylmorpholino)methyl)piperazin-1-yl)ethan-1-one], in that order: 1.2 nM, 7.7 nM and 0.82 nM.
For `C[C@@H]1CN(CC(=O)N2c3cc(Cc4ccc(F)cc4)cnc3OC[C@@H]2C)[C@@H](CN2CCOC[C@H]2C)CN1` [Compound 19A, 1-((S)-7-(4-fluorobenzyl)-2-methyl-2,3-dihydro-1H-pyrido[2,3-b][1,4]oxazin-1-yl)-2-((2R,5R)-5-methyl-2-(((R)-3-methylmorpholino)methyl)piperazin-1-yl)ethan-1-one], in that order: 0.25 nM, 2.7 nM and 0.13 nM.
Consider `C[C@@H]1CN(CC(=O)N2c3cc(Cc4ccc(F)cc4)cnc3OC[C@H]2C)[C@@H](CN2CCOC[C@H]2C)CN1` [Compound 19B, 1-((R)-7-(4-fluorobenzyl)-2-methyl-2,3-dihydro-1H-pyrido[2,3-b][1,4]oxazin-1-yl)-2-((2R,5R)-5-methyl-2-(((R)-3-methylmorpholino)methyl)piperazin-1-yl)ethan-1-one], for which the IC50 amounted to 27 nM in experiment [1], 33 nM in experiment [2] and 6.4 nM in experiment [3].
On the same counts, the results for `C[C@@H]1CN(CC(=O)N2c3cc(Cc4ccc(F)cc4)cnc3OCC23CC3)[C@@H](CN2CCOC[C@H]2C)CN1` [Compound 20, 1-(7′-(4-fluorobenzyl)-1′H,3′H-spiro[cyclopropane-1,2′-pyrido[2,3-b][1,4]oxazin]-1′-yl)-2-((2R,5R)-5-methyl-2-(((R)-3-methylmorpholino)methyl)piperazin-1-yl)ethan-1-one hydrochloride] are 25 nM, 140 nM and 9.9 nM.
On the same counts, the results for `C[C@@H]1CN(CC(=O)N2CCOc3nc(C4(O)CC4)c(Cc4ccc(F)cc4)cc32)[C@@H](CN2CCOC[C@H]2C)CN1` [Compound 21, 1-(7-(4-fluorobenzyl)-6-(1-hydroxycyclopropyl)-2,3-dihydro-1H-pyrido[2,3-b][1,4]oxazin-1-yl)-2-((2R,5R)-5-methyl-2-(((R)-3-methylmorpholino)methyl)piperazin-1-yl)ethan-1-one] are 5.75 nM, 41 nM and 2.6 nM.
On the same counts, the results for `C[C@@H]1CN(CC(=O)N2c3cc(Cc4ccc(F)cc4)cnc3OC[C@@H]2C)[C@@H](CN2[C@H](C)COC[C@H]2C)CN1` [Compound 22] are 0.21 nM, 3.97 nM and 0.13 nM.
In the case of `C[C@@H]1CN(CC(=O)N2c3cc(Cc4ccc(F)cc4)cnc3OC[C@@H]2COCc2ccccc2)[C@@H](CN2[C@H](C)COC[C@H]2C)CN1` [Compound 23, 1-((S)-2-((benzyloxy)methyl)-7-(4-fluorobenzyl)-2,3-dihydro-1H-pyrido[2,3-b][1,4]oxazin-1-yl)-2-((2R,5R)-2-(((3R,5R)-3,5-dimethylmorpholino)methyl)-5-methylpiperazin-1-yl)ethan-1-one], the IC50 stood at 0.18 nM in experiment [1], 6.9 nM in experiment [2] and 0.13 nM in experiment [3].
On the same counts, the results for `C[C@@H]1CN(CC(=O)N2c3cc(Cc4ccc(F)cc4)c(CO)nc3OC[C@@H]2C)[C@@H](CN2[C@H](C)COC[C@H]2C)CN1` [Compound 24] are 0.24 nM, 4.49 nM and 0.15 nM.
For `C[C@@H]1CN(CC(=O)N2c3cc(Cc4ccc(F)cc4)c(CO)nc3OC[C@@H]2C)[C@@H](CN2CCOC[C@H]2C)CN1` [Compound 25, 1-((S)-7-(4-fluorobenzyl)-6-(hydroxymethyl)-2-methyl-2,3-dihydro-1H-pyrido[2,3-b][1,4]oxazin-1-yl)-2-((2R,5R)-5-methyl-2-(((R)-3-methylmorpholino)methyl)piperazin-1-yl)ethan-1-one], in that order: 0.5 nM, 6 nM and 0.3 nM.
For `C[C@@H]1CN(CC(=O)N2c3cc(Cc4ccc(F)cc4)cnc3OC[C@@H]2C2CC2)[C@@H](CN2CCOC[C@H]2C)CN1` [Compound 26, 1-((S)-2-cyclopropyl-7-(4-fluorobenzyl)-2,3-dihydro-1H-pyrido[2,3-b][1,4]oxazin-1-yl)-2-((2R,5R)-5-methyl-2-(((R)-3-methylmorpholino)methyl)piperazin-1-yl)ethan-1-one], in that order: 1.13 nM, 16 nM and 0.48 nM.
As to `C[C@@H]1CN(CC(=O)N2c3cc(Cc4ccc(F)cc4)cnc3OC[C@@H]2C2CC2)[C@@H](CN2[C@H](C)COC[C@H]2C)CN1` [Compound 27, 1-((S)-2-cyclopropyl-7-(4-fluorobenzyl)-2,3-dihydro-1H-pyrido[2,3-b][1,4]oxazin-1-yl)-2-((2R,5R)-2-(((3R,5R)-3,5-dimethylmorpholino)methyl)-5-methylpiperazin-1-yl)ethan-1-one], the figures for the IC50 in experiment [1], in experiment [2] and in experiment [3] were 0.5 nM, 14 nM and 0.2 nM, respectively.
On the same counts, the results for `CC[C@H]1COc2ncc(Cc3ccc(F)cc3)cc2N1C(=O)CN1C[C@@H](C)NC[C@@H]1CN1CCOC[C@H]1C` [Compound 28, 1-((S)-2-ethyl-7-(4-fluorobenzyl)-2,3-dihydro-1H-pyrido[2,3-b][1,4]oxazin-1-yl)-2-((2R,5R)-5-methyl-2-(((R)-3-methylmorpholino)methyl)piperazin-1-yl)ethan-1-one] are 0.62 nM, 14 nM and 0.26 nM.

For orientation: IC50 means the concentration that inhibits the measured activity by half.

The values are drawn from patent publication US12583866B2, “Pyrido[2,3-b][1,4]oxazines or tetrahydropyrido[2,3-b][1,4]oxazepines as IAP antagonists” (BEIGENE, LTD., priority 2020, dated 2026).
